Reference: US9957214B2, “Multifunctional radical quenchers” (ARIZONA BOARD OF REGENTS ON BEHALF OF ARIZONA STATE …, priority 2012, dated 2018)

Legend:
[1] = system: Friedreich's ataxia lymphoblast cell line GM15850; experiment: Cytoprotection (trypan blue exclusion assay) of DEM-treated FRDA lymphocytes; type: cell-based; details: Homo sapiens, GM15850; 5 μM; DEM alone 18 ± 10% viability; read-out: Cytoprotection (cell viability, % of untreated control)
Experimental: Cell viability was determined by trypan blue exclusion assay in Friedreich's ataxia lymphoblast cell line GM15850 (Coriell Institute, New Jersey). This technique was used to assess the cytoprotective effects of the tested compounds in cultured cells treated with DEM to induce cell death by GSH depletion. The viability of DEM-treated FRDA cells was determined by their ability to exclude the dye trypan blue. Viable cells exclude trypan blue, whereas non-viable cells take up the dye and stain blue. Briefly, FRDA lymphocytes were grown in RPMI 1640 medium (Gibco) supplemented with 15% fetal calf serum, 2 mM glutamine (HyClone) and 1% penicillin-streptomycin mix (Cellgro). Cells were seeded at a density of 5×10^5 cells/mL and treated with different concentrations of the indicated compounds. Cells were incubated at 37° C. in a humidified atmosphere of 5% CO2 in air for 17 h. After pre-incubation, the cells were treated with 5 mM DEM. Cell viability was determined by staining cells with 0.4% trypan blue using a hemacytometer. At least 500 cells were counted in each experimental group. At the time of assay, <20% of DEM treated cells were viable (trypan blue negative), whereas in non DEM-treated control, >90% cells were viable. Cell viability was expressed as the percentage of control. Data are expressed as means±S.E.M. (n=3).
Cell viability was determined by trypan blue exclusion assay in Friedreich's ataxia lymphoblast cell line GM15850 (Coriell Institute). This technique was used to assess the cytoprotective effects of the compounds in cultured cells treated with diethyl maleate (DEM) to induce cell death by glutathione (GSH) depletion. The viability of DEM-treated FRDA cells was determined by their ability to exclude the dye trypan blue. Viable cells exclude trypan blue, whereas non-viable cells take up the dye and stain blue. […] Benzoquinone analogue 9 afforded greater cyoprotection to FRDA lymphocytes at 5 μM concentration than did the tert-butyl ester 6 (74 vs 50%).

[2] = target: bovine heart mitochondrial complex I (Bos taurus, UniProt P03887+P17694+P42026); experiment: Complex I (NADH-Q1 oxidoreductase) inhibition in submitochondrial particles; type: biochemical; details: submitochondrial particles, 30° C.
FRDA lymphocytes = experiment: Preservation of mitochondrial membrane potential (TMRM flow cytometry) in DEM-treated FRDA lymphocytes; type: cell-based
Experimental: FIG. 3. Effect of nitrogen-containing 1,4-benzoquinone derivatives on mitochondrial membrane potential of cultured FRDA cells. Representative flow cytometric two dimensional color density dot plot analyses of mitochondrial membrane potential Δψm in FRDA lymphocytes stained with TMRM and analyzed using the FL2-H channel as described in Experimental Section. The cells were washed twice in phosphate buffered saline, and suspended in phosphate buffered saline containing 20 mM glucose. The percentage of cells with intact Δψm is indicated in the top right quadrant of captions. In each analysis, 10,000 events were recorded. Data are expressed as means±SEM of three independent experiments run in duplicate.
Mitochondrial membrane potential was measured using two different fluorescent dyes, TMRM and JC-1. Δψm was determined as previously described by staining FRDA lymphocyte cells with TMRM (Molecular Probes, Eugene, Oreg.) and analyzing fluorescence emission by flow cytometry in detection channel 2 (FL2-H) (Khdour et al. (2011) Pharmaceut. Res. 28, 2896-2909). Briefly, FRDA lymphocytes were pre-treated with or without the test compounds for 16 h. The cells were treated with 5 mM DEM for 140 min, collected by centrifugation at 300×g for 3 min and then washed twice with phosphate buffered saline. The cells were resuspended in PBS containing […] and incubated at 37° C. in the dark for 15 min with 250 nM TMRM. Cells were collected by centrifugation at 300×g for 3 min and were then washed with phosphate buffered saline. The samples were analyzed immediately by flow cytometry using a 488 nm excitation laser and the FL2-H channel. The results obtained were verified in three independent experiments. […] In each analysis, 10,000 events were recorded. […] The following day, cells were treated with tested compounds and incubated for an additional 12 h before treatment with 1 mM BSO. Δψm was assessed after 24 h using JC-1 Mitochondrial Membrane Potential Detection Kit (Biotium, Inc) following the manufacturer instruction. Glass cover slips were rinsed with phosphate-buffered saline and mounted onto slides, and images were recorded and analyzed with a Zeiss AxioCam MRm and AxioVision 3.1 software (Carl Zeiss Goettingen, Germany) on a Zeiss Axiovert 200 M inverted microscope, equipped with a 40× oil immersion objective.
The ability of the test compounds to preserve mitochondrial membrane potential under conditions of oxidative stress was studied. […] Changes in mitochondrial membrane potential (Δψm) were measured using two different fluorescent dyes, tetramethylrhodamine methyl ester (TMRM) and 5,5′,6,6′-tetrachloro-1,1′,3,3′-tetraethylbenzimidazolocarbocyanine iodide (JC-1). […] The fluorescence signal of TMRM can be directly co-related to Δψm across the inner mitochondrial membrane. […]

[3] = system: differentiated SH-SY5Y cells; experiment: Neuroprotection against Aβ 1-42 oligomer induced cytotoxicity (WST-1); type: cell-based, human; details: Aβ 1-42 oligomers 2.5 μM, 48 h
Experimental: FIG. 8. Effect of nitrogen-containing 1,4-benzoquinone 40 and geldanamycin on Aβ 1-42 induced neurotoxicity in differentiated SH-SY5Y cells.
The cytotoxic effect of Aβ 1-42 oligomers (2.5 μM) on differentiated SH-SY5Y cells was evaluated in presence and absence of the test compounds. Sequential treatment of the human SH-SY5Y neuroblastoma cell line with retinoic acid and brain-derived neurotrophic factor (BDNF) generates nearly pure populations of human neuron-like cells, thus providing a model for the study of neuronal differentiation and neuroprotection as previously described, with some modifications (Encinas et al. (2000) J. Neurochem. 75, 991-1003). […] The plates were incubated at 37° C. in an atmosphere having 95% humidity and 5% CO2 for 48 h and then cell viability was measured using a WST-1 Kit (Roche Diagnostics). […] Color intensity was measured with a 96-well plate at 450 nm using a SpectraMax M5 microplate reader (Molecular Devices, Sunnyvale, Calif.). Results are expressed as percentage of viable cells relative to untreated control after subtracting background. Data are expressed as means±S.E.M. (n=3).
Synthetic human Aβ 1-42 was purchased from AnaSpec (San Jose, Calif.). […] Aβ 1-42 peptide content was determined by the method of bicinchoninic acid assay (micro-BCA kit, Pierce) using BSA as reference.

Sequence of bovine heart mitochondrial complex I (P25708 21-464): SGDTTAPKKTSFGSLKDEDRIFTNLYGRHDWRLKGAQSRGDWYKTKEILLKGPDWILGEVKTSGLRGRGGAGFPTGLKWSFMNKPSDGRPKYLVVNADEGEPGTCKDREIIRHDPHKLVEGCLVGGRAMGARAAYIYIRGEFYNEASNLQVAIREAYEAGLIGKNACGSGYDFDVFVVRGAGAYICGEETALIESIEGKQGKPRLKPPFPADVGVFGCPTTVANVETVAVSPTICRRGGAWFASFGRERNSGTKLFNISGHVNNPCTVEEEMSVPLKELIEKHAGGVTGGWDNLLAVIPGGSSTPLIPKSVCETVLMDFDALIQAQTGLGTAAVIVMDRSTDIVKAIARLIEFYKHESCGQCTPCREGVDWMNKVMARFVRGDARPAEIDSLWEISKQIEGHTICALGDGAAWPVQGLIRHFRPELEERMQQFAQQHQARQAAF
Sequence of bovine heart mitochondrial complex I (P42026 38-216): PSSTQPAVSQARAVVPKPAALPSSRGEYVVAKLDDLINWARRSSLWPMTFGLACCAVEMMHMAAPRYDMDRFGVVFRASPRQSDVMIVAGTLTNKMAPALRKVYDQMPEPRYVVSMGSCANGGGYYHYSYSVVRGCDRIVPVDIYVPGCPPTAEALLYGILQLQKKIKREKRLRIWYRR
Sequence of bovine heart mitochondrial complex I (P17694 34-463): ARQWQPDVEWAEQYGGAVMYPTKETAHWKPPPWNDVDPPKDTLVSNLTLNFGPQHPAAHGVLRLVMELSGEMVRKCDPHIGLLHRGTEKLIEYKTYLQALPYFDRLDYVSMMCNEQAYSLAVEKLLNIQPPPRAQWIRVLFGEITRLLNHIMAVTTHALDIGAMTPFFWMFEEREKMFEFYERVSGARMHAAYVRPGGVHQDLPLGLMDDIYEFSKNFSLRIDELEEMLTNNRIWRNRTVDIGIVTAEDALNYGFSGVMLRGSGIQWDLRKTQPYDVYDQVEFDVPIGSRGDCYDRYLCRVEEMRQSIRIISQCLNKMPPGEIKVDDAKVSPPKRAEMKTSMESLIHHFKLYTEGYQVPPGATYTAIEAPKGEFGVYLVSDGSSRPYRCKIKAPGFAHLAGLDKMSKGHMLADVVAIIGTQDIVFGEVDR
Sequence of bovine heart mitochondrial complex I (P15690 24-727, further chain): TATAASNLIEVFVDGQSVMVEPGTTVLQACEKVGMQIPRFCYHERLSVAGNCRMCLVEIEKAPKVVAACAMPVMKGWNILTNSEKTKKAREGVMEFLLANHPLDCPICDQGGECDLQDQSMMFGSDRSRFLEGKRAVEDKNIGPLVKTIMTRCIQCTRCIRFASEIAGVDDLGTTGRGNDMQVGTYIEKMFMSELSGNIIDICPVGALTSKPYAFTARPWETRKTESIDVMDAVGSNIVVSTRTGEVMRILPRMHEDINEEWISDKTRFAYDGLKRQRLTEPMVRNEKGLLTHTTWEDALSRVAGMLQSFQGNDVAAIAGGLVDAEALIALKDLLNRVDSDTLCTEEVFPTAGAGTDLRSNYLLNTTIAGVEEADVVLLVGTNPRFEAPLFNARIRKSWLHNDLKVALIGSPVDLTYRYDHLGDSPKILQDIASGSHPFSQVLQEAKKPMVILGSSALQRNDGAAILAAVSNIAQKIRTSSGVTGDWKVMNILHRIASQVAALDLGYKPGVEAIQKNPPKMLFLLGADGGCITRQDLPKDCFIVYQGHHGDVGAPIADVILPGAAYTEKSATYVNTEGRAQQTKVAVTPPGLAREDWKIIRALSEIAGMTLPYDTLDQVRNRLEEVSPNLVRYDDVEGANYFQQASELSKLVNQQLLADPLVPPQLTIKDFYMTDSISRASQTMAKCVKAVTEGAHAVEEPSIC
Sequence of bovine heart mitochondrial complex I (P03887 whole entry): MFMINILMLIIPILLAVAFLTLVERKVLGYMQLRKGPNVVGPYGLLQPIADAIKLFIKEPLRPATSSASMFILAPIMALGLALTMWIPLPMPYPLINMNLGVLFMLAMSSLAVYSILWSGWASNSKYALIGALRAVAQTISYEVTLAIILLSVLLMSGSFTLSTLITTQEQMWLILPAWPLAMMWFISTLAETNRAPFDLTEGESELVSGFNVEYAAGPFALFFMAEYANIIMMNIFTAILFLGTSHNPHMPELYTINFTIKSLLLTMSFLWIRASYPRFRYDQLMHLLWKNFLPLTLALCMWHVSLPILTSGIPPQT
Sequence of bovine heart mitochondrial complex I (P42028 37-212, further chain): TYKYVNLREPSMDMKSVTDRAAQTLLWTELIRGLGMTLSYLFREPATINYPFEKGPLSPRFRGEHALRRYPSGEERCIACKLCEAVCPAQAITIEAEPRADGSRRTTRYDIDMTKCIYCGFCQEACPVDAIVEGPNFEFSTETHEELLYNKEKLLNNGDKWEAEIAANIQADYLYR

CCCCCCCCCCCCCC1=C(OC)C(=O)C=C(NCCCC(=O)OCCCC)C1=O [Compound 15, Butyl 4-(4-methoxy-3,6-dioxo-5-tridecylcyclohexa-1,4-dienylamino)butanoate]
viability at 5 µM [1]: 82 ± 2.9% | IC50 ([2]; read-out: Complex I inhibition IC50): 98 ± 8 µM | Emax ([2]; read-out: Complex I inhibition Imax): ≥ 60% | Preservation of mitochondrial membrane potential Δψm (in words) (FRDA lymphocytes): prevented the loss of Δψm

COC1=C2C[C@@H](C)C[C@H](OC)[C@H](O)[C@@H](C)/C=C(\C)[C@H](OC(N)=O)[C@@H](OC)/C=C\C=C(/C)C(=O)NC(=CC1=O)C2=O [geldanamycin, reference compound]
Effect on Aβ 1-42 induced cytotoxicity (in words) [3]: increased cytotoxicity
